Key:
[1] = tested on: Tankyrase (Axin2 level in DLD1 cells); test: Cellular inhibition of Tankyrase, Axin2 Luminex assay in DLD1 cells; assay type: cell-based; settings: Homo sapiens, DLD-1, 24 hours, Axin2 level increase, read-out: IC50 Cell assay
Procedure: Measurement of Cellular Inhibition of Tankyrase
Since Tankyrases have been described to modulate cellular level of Axin2 (Huang et al., 2009; Nature) the increase of Axin2 level is used as read-out for determination of cellular inhibition of Tankyrases in a Luminex based assay.
Cells of the colon carcinoma cell line DLD1 are plated in 96 well plates with 1.5×10^4 cells per well. Next day, cells are treated with a serial dilution of test compound in seven steps as triplicates with a final DMSO concentration of 0.3%. After 24 hours, cells are lysed in lysis buffer (20 mM Tris/HCl pH 8.0, 150 mM NaCl, 1% NP40, 10% Glycerol) and lysates are cleared by centrifugation through a 96 well filter plate (0.65 μm). Axin2 protein is isolated from cell lysates by incubation with a monoclonal anti-Axin2 antibody (R&D Systems #MAB6078) that is bound to fluorescent carboxybeads. Then, bound Axin2 is specifically detected with a polyclonal anti-Axin2 antibody (Cell Signaling #2151) and an appropriate PE-fluorescent secondary antibody. The amount of isolated Axin2 protein is determined in a Luminex^200 machine (Luminex Corporation) according to the manufacturer's instruction by counting 100 events per well. Inhibition of Tankyrase by test compounds results in higher levels of Axin2 which directly correlates with an increase of detectable fluorescence. As controls cells are treated with solvent alone (neutral control) and with a Tankyrase reference inhibitor IWR-2 (3E-06 M) which refers as control for maximum increase of Axin2. For analysis, the obtained data are normalized against the untreated solvent control and fitted for determination of the EC50 values using the Assay Explorer software (Accelrys).

[2] = biological target: T1, GST-tagged Tnks-1 (1023-1327 aa) (Homo sapiens, UniProt O95271); test: TNKS1 activity ELISA (autoparsylation); assay type: biochemical; settings: activity ELISA, 1 hour at 30° C; read-out: IC50 TNKS1 ELISA
T1 construct: GST-tagged Tnks-1 (1023-1327 aa, prepared in-house); made in house
Procedure: (§1) Description of the TNKS1 and TNKS2 ELISA Assay
(§2) Biochemical Activity Testing of TNKS 1 and 2: Activity ELISA (Autoparsylation Assay)
(§3) For analysis of autoparsylation activity of TNKS 1 and 2 an activity ELISA is performed: In the first step GST tagged TNKS is captured on a Glutathione coated plate. Then the activity assay with biotinylated NAD is performed in the absence/presence of the compounds. During the enzymatic reaction GST tagged TNKS transfers biotinylated ADP-ribose to itself from biotinylated NAD as co-substrate. For the detection streptavidin-HRP conjugate is added that binds to the biotinylated TNKS and is thereby captured to the plates. The amount of biotinylated resp. autoparsylated TNKS is detected with a luminescence substrate for HRP. The level of the luminescence signal correlates directly with the amount of autoparsylated TNKS and therefore with activity of TNKS.
(§4) The activity ELISA is performed in 384 well Glutathione coated microtiter plates (Express capture Glutathione coated plate, Biocat, Heidelberg, Germany). The plates are pre-equilibrated with PBS. Then the plates are incubated with 50 μl 20 ng/well GST-tagged Tnks-1 (1023-1327 aa, prepared in-house), respectively GST-tagged Tnks-2 (873-1166 aa, prepared in-house) in assay buffer (50 mM HEPES, 4 mM Mg-chloride, 0.05% Pluronic F-68, 2 mM DTT, pH 7.7) overnight at 4° C. The plates are washed 3 times with PBS-Tween-20. The wells are blocked by incubation at room temperature for 20 minutes with 50 μl blocking buffer (PBS, 0.05% Tween-20, 0.5% BSA). Afterwards the plates are washed 3 times with PBS-Tween-20. The enzymatic reaction is performed in 50 μl reaction solution (50 mM HEPES, 4 mM Mg-chloride, 0.05% Pluronic F-68, 1.4 mM DTT, 0.5% DMSO, pH 7.7) with 10 μM bio-NAD (Biolog, Life science Inst., Bremen, Germany) as co-substrate in the absence or presence of the test compound (10 dilution concentrations) for 1 hour at 30° C. The reaction is stopped by 3 times washing with PBS-Tween-20. For the detection 50 μl of 20 ng/μl Streptavidin, HRP conjugate (MoBiTec, Göttingen, Germany) in PBS/0.05% Tween-20/0.01% BSA are added and the plates are incubated for 30 minutes at room temperature. After three times washing with PBS-Tween-20 50 μl of SuperSignal ELISA Femto Maximum sensitivity substrate solution (ThermoFisherScientific (Pierce), Bonn, Germany) are added. Following a 1 minute incubation at room temperature luminescence signals are measured with an Envision multimode reader (Perkin Elmer LAS Germany GmbH) at 700 nm. The full value used is the inhibitor-free reaction. The pharmacological zero value used is XAV-939 (Tocris) in a final concentration of 5 μM. The inhibitory values (IC50) are determined using either the program Symyx Assay Explorer® or Condosseo® from GeneData.

[3] = biological target: T2, GST-tagged Tankyrase-2 (873-1166 aa) (Homo sapiens, UniProt Q9H2K2); test: Tankyrase 2 autoparsylation HTRF enzyme assay; assay type: biochemical; settings: HTRF autoparsylation, 90 min at 30° C; read-out: IC50 TNKS2 enzyme assay
T2 construct: GST-tagged Tankyrase-2 (873-1166 aa)
Procedure: (§5) Biochemical Activity Testing of Tankyrase 1 and 2: Autoparsylation Assay
(§6) The autoparsylation assay is run in two steps: the enzymatic reaction in which GST-tagged Tankyrase-1, resp Tankyrase-2 transferred biotinylated ADP-ribose to itself from biotinylated NAD as co-substrate and the detection reaction where a time resolved FRET between cryptate labelled anti-GST bound to the GST tag of the enzyme and Xlent® labelled-streptavidin bound the biotin-parsylation residue is analysed. The autoparsylation activity was detectable directly via the increase in HTRF signal.
(§7) The autoparsylation assay is performed as 384-well HTRF® (Cisbio, Codolet, France) assay format in Greiner low volume nb 384-well microtiter plates and is used for high throughput screen. 250 nM GST-tagged Tankyrase-1 (1023-1327 aa), respectively about 250 nM GST-tagged Tankyrase-2 (873-1166 aa) and 5 μM bio-NAD (Biolog, Life science Inst., Bremen, Germany) as co-substrate are incubated in a total volume of 5 μl (50 mM HEPES, 4 mM Mg-chloride, 0.05% Pluronic F-68, 1.4 mM DTT, 0.5% DMSO, pH 7.7) in the absence or presence of the test compound (10 dilution concentrations) for 90 min at 30° C. The reaction is stopped by the addition of 1 μl 50 mM EDTA solution. 2 μl of the detection solution (1.6 μM SA-Xlent® (Cisbio, Codolet, France), 7.4 nM Anti-GST-K® (Eu-labelled anti-GST, Cisbio, Codolet, France) in 50 mM HEPES, 800 mM KF, 0.1° A. BSA, 20 mM EDTA, 0.1% CHAPS, pH 7.0) are added. After 1 h incubation at room temperature the HTRF is measured with an Envision multimode reader (Perkin Elmer LAS Germany GmbH) at excitation wavelength 340 nm (laser mode) and emission wavelengths 615 nm and 665 nm. The ratio of the emission signals is determined. The full value used is the inhibitor-free reaction. The pharmacological zero value used is XAV-939 (Tocris) in a final concentration of 5 μM. The inhibitory values (IC50) are determined using either the program Symyx Assay Explorer® or Condosseo® from GeneData.

[4] = biological target: T3, GST-tagged Tankyrase-1 (1023-1327 aa) (Homo sapiens, UniProt O95271); test: Tankyrase 1 autoparsylation HTRF enzyme assay; assay type: biochemical; settings: HTRF autoparsylation, 90 min at 30° C; read-out: IC50 TNKS1 enzyme assay
T3 construct: GST-tagged Tankyrase-1 (1023-1327 aa)
Procedure: as §5, §6, §7

[5] = biological target: T4, GST-tagged Tnks-2 (873-1166 aa) (Homo sapiens, UniProt Q9H2K2); test: TNKS2 activity ELISA (autoparsylation); assay type: biochemical; settings: activity ELISA, 1 hour at 30° C; read-out: IC50 TNKS2 ELISA
T4 construct: GST-tagged Tnks-2 (873-1166 aa, prepared in-house); made in house
Procedure: as §1, §2, §3, §4

DLD-1-cancer cells = settings: Huang et al., 2009, Nature; cited from earlier work
β-catenin = settings: Huang et al., 2009, Nature; by increasing AXIN1 and AXIN2 levels; cited from earlier work

T2 sequence (Q9H2K2 873-1166): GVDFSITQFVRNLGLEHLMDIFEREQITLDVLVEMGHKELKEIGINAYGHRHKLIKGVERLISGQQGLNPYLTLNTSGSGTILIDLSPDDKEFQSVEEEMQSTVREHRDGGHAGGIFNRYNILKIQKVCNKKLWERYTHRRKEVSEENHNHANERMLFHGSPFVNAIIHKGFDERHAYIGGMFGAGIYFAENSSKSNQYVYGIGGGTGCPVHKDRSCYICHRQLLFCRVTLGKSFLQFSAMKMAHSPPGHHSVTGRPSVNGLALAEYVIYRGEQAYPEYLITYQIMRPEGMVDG
T4 sequence (Q9H2K2 873-1166): as above
T3 sequence (O95271 1023-1327): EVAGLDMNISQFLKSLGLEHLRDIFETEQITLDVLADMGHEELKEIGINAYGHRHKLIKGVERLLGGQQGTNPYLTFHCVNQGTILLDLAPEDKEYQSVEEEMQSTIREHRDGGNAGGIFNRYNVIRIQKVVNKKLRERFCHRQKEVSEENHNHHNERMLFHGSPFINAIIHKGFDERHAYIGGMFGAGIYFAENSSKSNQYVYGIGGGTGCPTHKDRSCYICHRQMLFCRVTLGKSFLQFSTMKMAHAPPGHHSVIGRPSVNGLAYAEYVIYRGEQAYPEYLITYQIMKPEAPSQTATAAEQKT
T1 sequence (O95271 1023-1327): as above

IC50 [1] [nM]	IC50 [2] [nM]	IC50 [3] [nM]	IC50 [4] [nM]	IC50 [5] [nM]	Structure (SMILES)	growth of DLD-1-cancer cells (DLD-1-cancer cells)	Wnt-stimulated accumulation of β-catenin (β-catenin)
3000 to 50000	< 300	300 to 3000	< 300	< 300	O=C(CCc1cccc(Cl)c1Cl)Nc1nncc2ccccc12 [Compound A17, 3-(2,3-dichloro-phenyl)-N-phthalazin-1-yl-propionamide]	–	–
–	–	–	–	–	Oc1nc(-c2ccc(C(F)(F)F)cc2)nc2c1CSCC2 [XAV939]	inhibits growth	blocked

From patent publication US9751842B2, “Phthalazine derivatives” (Merck Patent GmbH, priority 2013, dated 2017)
